According to US5436369A, “Alicyclic phospholipase A2 inhibitors” (Bristol-Myers Squibb Company, priority 1994, dated 1995):

biological target: T1, PLA2 (Homo sapiens, UniProt P14555); test: PLA2 Inhibition Assay (14C-oleate labeled E. coli membrane substrate); format: biochemical; conditions: Table 2, Structure 14 (Type IA); 100 μM; enzyme isolated from human platelets
T1 construct: The enzyme is isolated from human platelets; from tissue; host or cells: human platelets
T1 sequence (P14555 21-144): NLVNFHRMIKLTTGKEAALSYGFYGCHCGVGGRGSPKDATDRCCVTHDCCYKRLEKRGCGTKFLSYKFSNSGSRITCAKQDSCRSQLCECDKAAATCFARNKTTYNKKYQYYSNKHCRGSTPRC
Protocol: The method used is similar to that reported by Franson, et al. [Jesse, R. L. and Franson R. C., Biochim. Biophys. Acta 575:467-470 (1979); Franson, R. C., Patriarca, P., and Elsback, P., J. Lipid Res. 15: 380-388 (1974)]. The enzyme is isolated from human platelets. The substrate used consists of ^14 C-oleate labeled Escherichia coli membranes. E. coli cells are grown in the presence of ^14 C-oleic acid and then autoclaved to prepare the membranes.
Various concentrations of test compounds are pre-incubated with PLA2 (3.6 μg/mL in a buffer consisting of 25 mM HEPES (pH 7)), 150 mM NaCl, 5.0 mM CaCl2, and 10% DMSO (v/v, test compound solvent) at 37° C. for 7 minutes. The E. coli membrane substrate is then added (0.1 mM phospholipid, 0.005 μCi ^14 C) and the reaction is then incubated at 37° C. for 30 minutes. The reaction is then terminated by the addition of 1.9 mL tetrahydrofuran (THF), and the entire solution is applied to a solid-phase extraction column (aminopropyl resin, Analytichem). The column is rinsed with an additional 1 mL of THF. The free fatty acid product of the reaction is then eluted from the column with 1 mL of 2% acetic acid in THF and collected in a scintillation vial. The amount of free fatty acid product is determined by liquid scintillation counting. The amount of inhibition produced by the test compound is calculated by comparing the counts obtained in the presence of the compound to those obtained in its absence (solvent only). Background counts were determined by performing incubations in the absence of enzyme.
Percent inhibition is determined by the equation: [formula]

SMILES | inhibition at 100 µM [%]
O=C(O)/C=C\C(=C\CCc1ccc(C23CC4CC(CC(C4)C2)C3)c(OCc2cc(F)cc(F)c2)c1)c1cccc(C(F)(F)F)c1 [Structure 14s, (2Z),(4Z)-4-(3-Trifluoromethylphenyl)-7-[4-(1-adamantyl)-3-(3,5-difluorobenzyloxy)phenyl]-2,4-heptadienoic acid] | 100
COc1ccc(COc2cc(CC/C=C(/C=C\C(=O)O)c3cccc(C(F)(F)F)c3)ccc2C23CC4CC(CC(C4)C2)C3)cc1 [Structure 14t, (2Z),(4Z)-4-(3-Trifluoromethylphenyl)-7-[4-(1-adamantyl)-3-(4-methoxybenzyloxy)phenyl]-2,4-heptadienoic acid] | 100
O=C(O)/C=C\C(=C\CCc1ccc(C23CC4CC(CC(C4)C2)C3)c(OCc2ccccc2)c1)c1cccc(C(F)(F)F)c1 [Structure 14u, (2Z),(4Z)-4-(3-Trifluoromethylphenyl)-7-[4-(1-adamantyl)-3-benzyloxyphenyl]-2,4-heptadienoic acid] | 100
O=C(O)/C=C\C(=C\CCc1ccc(C23CC4CC(CC(C4)C2)C3)c(OCC(=O)O)c1)c1cccc(C(F)(F)F)c1 [Structure 14v, (2Z),(4Z)-4-(3-Trifluoromethylphenyl)-7-[4-(1-adamantyl)-3-(carboxymethoxy)phenyl]-2,4-heptadienoic acid] | 100

same assay, conditions: Table 3, Structure 18 (Type IB); 100 μM; enzyme isolated from human platelets

SMILES | inhibition at 100 µM [%]
CC1(C)CCC(C)(C)c2cc(/C=C(/C=C/C(=O)O)c3cccc(C(=O)O)c3)ccc21 [Structure 18a, (2E),(4Z)-4-(3-Carboxyphenyl)-5-(5,6,7,8-tetrahydro-5,5,8,8-tetramethyl-2-naphthalenyl)-2,4-pentadienoic acid] | 27
CC1(C)CCC(C)(C)c2cc3cc(/C=C(/C=C/C(=O)O)c4cccc(C(=O)O)c4)ccc3cc21 [Structure 18b, (2E),(4Z)-4-(3-Carboxyphenyl)-5-(5,6,7,8-tetrahydro-5,5,8,8-tetramethyl-2-anthracenyl)-2,4-pentadienoic acid] | 100
CCCCCOc1ccc(/C=C(/C=C/C(=O)O)c2cccc(C(=O)O)c2)cc1OCCCCC [Structure 18c, (2E),(4Z)-4-(3-Carboxyphenyl)-5-(3,4-bispentyloxyphenyl)-2,4-pentadienoic acid] | 70
CCCCCCCCCCOc1ccc(/C=C(/C=C/C(=O)O)c2cccc(C(=O)O)c2)cc1OCCCCCCCCCC [Structure 18d, (2E),(4Z)-4-(3-Carboxyphenyl)-5-(3,4-bisdecyloxyphenyl)-2,4-pentadienoic a cid] | 91
CC1(C)CCC(C)(C)c2cc(CC/C=C(/C=C/C(=O)O)c3cccc(C(=O)O)c3)ccc21 [Structure 18e, (2E),(4Z)-4-(3-Carboxyphenyl)-7-(5,6,7,8-tetrahydro-5,5,8,8-tetramethyl-2-naphthalenyl)-2,4-heptadienoic acid] | 55

same assay, conditions: Table 4, Structure 20 (Type IB); 100 μM; enzyme isolated from human platelets

SMILES | inhibition at 100 µM [%]
CC1(C)CCC(C)(C)c2cc(CC/C=C(/C=C/C(=O)O)c3cccc(C(F)(F)F)c3)ccc21 [Structure 20a, (2E),(4Z)-4-(3-Trifluoromethylphenyl)-7-(5,6,7,8-tetrahydro-5,5,8,8-tetramethyl-2-naphthalenyl)-2,4-heptadienoic acid] | 52
CC1(C)CCC(C)(C)c2cc(CC/C=C(/C=C/C(=O)O)c3ccc(F)cc3)ccc21 [Structure 20b] | 73
CC1(C)CCC(C)(C)c2cc(CC/C=C(/C=C/C(=O)O)c3cccc(F)c3)ccc21 [Structure 20c, (2E),(4Z)-4-(3-Fluorophenyl)-7-(5,6,7,8-tetrahydro-5,5,8,8-tetramethyl-2-naphthalenyl)-2,4-heptadienoic acid] | 67
CC1(C)CCC(C)(C)c2cc(CC/C=C(/C=C/C(=O)O)c3ccccc3)ccc21 [Structure 20d, (2E),(4Z)-4-Phenyl-7-(5,6,7,8-tetrahydro-5,5,8,8-tetramethyl-2-naphthalenyl)-2,4-heptadienoic acid] | 62
COc1ccc(CC/C=C(/C=C/C(=O)O)c2cccc(C(F)(F)F)c2)cc1C12CC3CC(CC(C3)C1)C2 [Structure 20e, (2Z),(4Z)-4-(3-Trifluoromethylphenyl)-7-[3-(1-adamantyl)-4-methoxyphenyl]-2,4-heptadienoic acid] | 81
COc1cc(CC/C=C(/C=C/C(=O)O)c2cccc(C(F)(F)F)c2)ccc1C12CC3CC(CC(C3)C1)C2 [Structure 20f, (2Z),(4Z)-4-(3-Trifluoromethylphenyl)-7-[4-(1-adamantyl)-3-methoxyphenyl]-2,4-heptadienoic acid] | 90

same assay, conditions: Table 6, Structure 40 (Type ID); 100 μm as printed; enzyme isolated from human platelets

SMILES | % Inhibition of PLA2 AT 100 μm [%]
CC1(C)CCC(C)(C)c2cc(CC/C=C(/CCC(=O)O)c3cccc(C(F)(F)F)c3)ccc21 [Structure 40, (Z)-4-(3-trifluoromethylphenyl)-7-(5,6,7,8-tetrahydro-5,5,8,8-tetramethyl-2-naphthalenyl)-4-heptenoic acid] | 79
